pIC50: −log10 of the molar value.
Test system: 935938-334-R-J1-PDC complex spheroid viability
Experiment: Anticancer human tumor 935938-334-R-J1-PDC patient-derived small intestine adenocarcinoma cell line growth inhibition [POLQ]
Conditions: for pIC50: curve of first compound; for viability, T/C: stronger effect = lower value
Outline: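 PDC + HUVEC + MSC complex spheroids; POLQ inhibitors ± partner drugs; top conc. at/near clinical Cmax, else 10 microM (SN-38 1 microM), half-log dilutions; 37 degrees C, 5% CO2.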

[1] = second compound 0.0316 µM, first compound 0.00316 µM
[2] = second compound 0.0316 µM, first compound 0.01 µM
[3] = second compound 0.0316 µM, first compound 0.0316 µM
[4] = second compound 0.0316 µM, first compound 0.1 µM
[5] = second compound 0.1 µM, first compound 0.00316 µM
[6] = second compound 0.1 µM, first compound 0.01 µM
[7] = second compound 0.1 µM, first compound 0.0316 µM
[8] = second compound 0.1 µM, first compound 0.1 µM
[9] = second compound 0.316 µM, first compound 0.00316 µM
[10] = second compound 0.316 µM, first compound 0.01 µM
[11] = second compound 0.316 µM, first compound 0.0316 µM
[12] = second compound 0.316 µM, first compound 0.1 µM
[13] = second compound 1 µM, first compound 0.00316 µM
[14] = second compound 1 µM, first compound 0.01 µM
[15] = second compound 1 µM, first compound 0.0316 µM
[16] = second compound 1 µM, first compound 0.1 µM
[17] = second compound 3.16 µM, first compound 0.00316 µM
[18] = second compound 3.16 µM, first compound 0.01 µM
[19] = second compound 3.16 µM, first compound 0.0316 µM
[20] = second compound 3.16 µM, first compound 0.1 µM
[21] = second compound 10 µM, first compound 0.00316 µM
[22] = second compound 10 µM, first compound 0.01 µM
[23] = second compound 10 µM, first compound 0.0316 µM
[24] = second compound 10 µM, first compound 0.1 µM
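Also: spheroids exposed to drugs for seven days before viability read.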
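For viability, T/C in this document: 100% = DMSO vehicle control wells.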

CC[C@@]1(O)C(=O)OCc2c1cc1n(c2=O)Cc2cc3c(CN(C)C)c(O)ccc3nc2-1 + Cc1cccc(N(C)C(=O)C2C(O)CCN2c2nc(C)cc(C(F)(F)F)c2C#N)c1
pIC50 (second compound 0.0316 µM): < 7.00 | pIC50 (second compound 0.1 µM): < 7.00 | pIC50 (second compound 0.316 µM): < 7.00 | pIC50 (second compound 1 µM): 7.04 | pIC50 (second compound 3.16 µM): < 7.00 | pIC50 (second compound 10 µM): < 7.00 | viability, T/C (second compound 0.0316 µM, first compound 0.000316 µM): 123% | viability, T/C (second compound 0.0316 µM, first compound 0.001 µM): 111% | viability, T/C [1]: 95.1% | viability, T/C [2]: 90.4% | viability, T/C [3]: 70.6% | viability, T/C [4]: 69.2% | viability, T/C (second compound 0.1 µM, first compound 0.000316 µM): 105% | viability, T/C (second compound 0.1 µM, first compound 0.001 µM): 113% | viability, T/C [5]: 109% | viability, T/C [6]: 128% | viability, T/C [7]: 68.5% | viability, T/C [8]: 82.7% | viability, T/C (second compound 0.316 µM, first compound 0.000316 µM): 112% | viability, T/C (second compound 0.316 µM, first compound 0.001 µM): 102% | viability, T/C [9]: 118% | viability, T/C [10]: 88% | viability, T/C [11]: 89.9% | viability, T/C [12]: 51.2% | viability, T/C (second compound 1 µM, first compound 0.000316 µM): 126% | viability, T/C (second compound 1 µM, first compound 0.001 µM): 115% | viability, T/C [13]: 92.9% | viability, T/C [14]: 111% | viability, T/C [15]: 79.9% | viability, T/C [16]: 46.3% | viability, T/C (second compound 3.16 µM, first compound 0.000316 µM): 101% | viability, T/C (second compound 3.16 µM, first compound 0.001 µM): 92.9% | viability, T/C [17]: 112% | viability, T/C [18]: 112% | viability, T/C [19]: 68.4% | viability, T/C [20]: 54% | viability, T/C (second compound 10 µM, first compound 0.000316 µM): 97% | viability, T/C (second compound 10 µM, first compound 0.001 µM): 95.3% | viability, T/C [21]: 84.7% | viability, T/C [22]: 84.5% | viability, T/C [23]: 101% | viability, T/C [24]: 55.2%

C=CCn1c(=O)c2cnc(Nc3ccc(N4CCN(C)CC4)cc3)nc2n1-c1cccc(C(C)(C)O)n1 + Cc1cccc(N(C)C(=O)C2C(O)CCN2c2nc(C)cc(C(F)(F)F)c2C#N)c1
pIC50 (second compound 0.0316 µM): 6.23 | pIC50 (second compound 0.1 µM): 6.30 | pIC50 (second compound 0.316 µM): 6.29 | pIC50 (second compound 1 µM): 6.17 | pIC50 (second compound 3.16 µM): 6.23 | pIC50 (second compound 10 µM): 6.29 | viability, T/C [1]: 86.3% | viability, T/C [2]: 67.3% | viability, T/C [3]: 80% | viability, T/C [4]: 85.8% | viability, T/C (second compound 0.0316 µM, first compound 0.316 µM): 77.8% | viability, T/C (second compound 0.0316 µM, first compound 1 µM): 26.6% | viability, T/C [5]: 93% | viability, T/C [6]: 87.5% | viability, T/C [7]: 97% | viability, T/C [8]: 107% | viability, T/C (second compound 0.1 µM, first compound 0.316 µM): 66% | viability, T/C (second compound 0.1 µM, first compound 1 µM): 25.7% | viability, T/C [9]: 90.4% | viability, T/C [10]: 110% | viability, T/C [11]: 83.6% | viability, T/C [12]: 95.9% | viability, T/C (second compound 0.316 µM, first compound 0.316 µM): 67.8% | viability, T/C (second compound 0.316 µM, first compound 1 µM): 25.5% | viability, T/C [13]: 94.8% | viability, T/C [14]: 98.6% | viability, T/C [15]: 106% | viability, T/C [16]: 104% | viability, T/C (second compound 1 µM, first compound 0.316 µM): 92.1% | viability, T/C (second compound 1 µM, first compound 1 µM): 27% | viability, T/C [17]: 69.9% | viability, T/C [18]: 112% | viability, T/C [19]: 74.9% | viability, T/C [20]: 87.7% | viability, T/C (second compound 3.16 µM, first compound 0.316 µM): 78.4% | viability, T/C (second compound 3.16 µM, first compound 1 µM): 26.2% | viability, T/C [21]: 103% | viability, T/C [22]: 101% | viability, T/C [23]: 88.7% | viability, T/C [24]: 96.4% | viability, T/C (second compound 10 µM, first compound 0.316 µM): 72.2% | viability, T/C (second compound 10 µM, first compound 1 µM): 19.6%

— PubChem BioAssay AID1963829 (Molecular Pharmacology Branch, DTP, NCI, 2024)
